Results reported in US11053314B2, “Methods to eliminate cancer stem cells by targeting CD47” (The U.S.A, as represented by the Secretary, Department of …, priority 2014, dated 2021).
Entries after “also recorded” stand apart in the source; their conditions may differ.

How the values were obtained:
[1] = test system: bCSCs derived from MDA-MB-231; assay: BrdU cell proliferation assay, bCSCs from MDA-MB-231; format: cell-based, human; settings: bCSC from MDA-MB-231
Protocol: To assess the effect of B6H12 on CSC proliferation, bCSC from MDA-MB-231 cells were treated with B6H12 or an isotype-matched control antibody, and proliferation was assessed by bromodeoxyuridine (BrdU) incorporation (FIG. 20A). […] We addressed this question by using a CRISPR vector (based on pX330-U6-Chimeric_BB-CBh-hSpCas9; Cong et al., Science. 339(6121):819-23, 2013, PMID: 23287718; sequence and other information available online at addgene.org/42230/) designed to specifically disrupt the CD47 gene in MDA-MB-231 cells (FIGS. 22A and 22B), using the following gRNA targeting sequence: 5′ CTACTGAAGTATACGTAAG ngg 3′ (PC200.Hcd47.g3a; SEQ ID NO: 2). PC200.Hcd47.g3a was transfected into bCSCs derived from MDA-MB-231 using a NUCLEOFECTOR™ kit (Lonza, Switzerland). CD47 negative cells were sorted using FACS analysis. CD47^neg bCSCs cells were expanded in culture and cell proliferation was measured using BrdU cell proliferation kit (EMD Millipore).
Approximately 8,000 cells were plated per well on 96-well plates and incubated overnight at 37° C. The cells were treated with B6H12 or isotype control antibody (1 μg/ml) for 24 h. BrdU was added for 4 or 24 h as indicated in the figures, and BrdU incorporation was quantified using a BrdU Cell Proliferation Kit according to the manufacturer's instructions (EMD Millipore). […]

EGFR = EGFR phosphorylation, IP-western blot in MDA-MB-231 cells and bCSCs; format: cell-based, human; settings: MDA-MB-231 cells; B6H12 15 min, EGF 5 min
Protocol: bCSC-depleted MDA-MB-231 cells and bCSCs were plated at 1×10^6 cells in 6-well plates. The cells were serum-starved for 2 hours using serum-free RPMI medium. The cells were pre-treated with B6H12 (1 μg/ml) for 20 min. Cell lysates were made using immunoprecipitation buffer (50 mM Tris-HCl, 150 mM NaCl, and 1% Nonidet P-40) along with 1× Complete Mini-protease inhibitor mixture (Roche Applied Science). Cell lysates were centrifuged at 13,000 rpm for 15 min. A BCA assay (Thermo scientific) was used to quantify total protein. DYNABEADS® magnetic separation beads (Invitrogen) were used for Immunoprecipitation. The DYNABEADS® magnetic separation beads were washed three times with activation buffer. The cell lysates were incubated in DYNABEADS®-protein G along with anti-EGFR and CD47 antibodies (1:500) and incubated for 24 hours at 4° C. on a shaker. The beads were washed three times with lysate buffer and heated at 95° C. for 5 min. The immunoprecipitated cell lysates were loaded on 4-12% NuPAGE gels (Life Technologies), and Western blotting was performed. For immunoprecipitation, primary antibody against phospho-EGFR (1:1000) was used. Normalization of protein lysates used for Western blotting was performed by reprobing with anti-β-actin (1:3000) or tubulin or EGFR antibodies.
MDA-MB-231 cells were pretreated with B6H12 (1 μg/ml) for 15 min. […]

[2] = test system: miR let7-family from cellular RNA of MDA-MB-231; assay: Real time PCR of let-7 family miRNAs (Ct values, Table 4); format: cell-based, human
Protocol: (FIG. 28C & FIG. 28D) The differentiated and bCSCs cells were treated with B6H12 Ab for 24 h. The total miRNA was extracted and let-7 family miRNAs were analyzed using real time PCR. Relative expression of let-7a-2miRNA in differentiated and bCSCs cells was determined using U6 as control. (FIG. 28E) EGFR mRNA expression on EVs derived from MDA-MB-231, bCSCs, T47D1 and MCF7 cells. The cells were treated with control or B6H12 antibody for 6 h using AB serum media. (FIG. 28F) Protein expression of EGFR in the presence or absence of B6H12 for 24 h using FACS sorted CD44^+/CD24-bCSCs from MDA-MB-231, T47D1 and MCF7 cell lines. FIG. 28G) Relative expression of let-7a-2miRNA from EVs. FIG. 28H) Amplification and expression of let-7a-3 miRNA from EV […].
CSC-depleted MDA-MB-231 and bCSCs were plated at 1×10^6 cells in 6-well plates and were-treated with B6H12 or Isotype control antibody (1 μg/ml) for 36 h. Total RNA was extracted using TriPure (Roche). One μg of total RNA was used for first strand cDNA synthesis using a Maxima kit (2-Step RT PCR, Thermo Scientific) according to the manufacturer's instructions. Real time PCR was performed using SYBR Green (Roche) on an MJ Research Opticon I instrument (Bio-Rad) with the amplification program as described in (Kaur et al., Matrix Biol, 37:49-59, 2014). β2-microglobulin (B2M), HPRT1 or 18S rRNA primers were used as control to normalize mRNA expression (Table 2).

E-cadherin = E-cadherin mRNA expression (FIG. 23); format: cell-based
Description: FIG. 23 is a bar graph showing that 7N3 peptide increase mRNA expression of E-cadherin.

MDA-MB-231 and bCSCs = assay: Mitochondrial energetics, extracellular flux (Seahorse Analyzer); format: cell-based, human; settings: 1 μg/ml
Protocol: The control MDA-MB-231 and bCSCs were plated using XF24 well plates for 1-4 days. Mitochondrial energetics was measured using extracellular flux assay kits. FIG. 12A) B6H12 (1 μg/ml) alters mitochondrial energetics in bCSCs but not in control MDA-MB-231 cells. FIGS. 12B & 12C) Long term treatment of bCSC with B6H12 (1 μg/ml) leads to decrease in basal oxygen consumption rate (OCR) due to decreased ATP associated OCR and decreases reserve mitochondrial metabolic capacity. […] The cells were immunostained using BrdU antibody and mounted with Vectashield DAPI. The confocal images were taken using a Zeiss 710 microscope at 63×. FIGS. 12E & 12F) Control MDA-MB-231 cells and bCSCs were treated with control or B6H12 Ab at 0.1, 1, 2 and 5 […] for 72 h. The cell proliferation was measured using CellTiter 96® Aqueous Non-Radioactive Cell Proliferation Assay (MTS) according to manufacturers' instructions.
B6H12 increased the basal oxygen consumption rate (OCR) at day 1 and day 3 but this was lost at day 4, when both the basal and spare metabolic capacity were decreased. The CD47 ligand TSP1 had less effect than the CD47 antibody. B6H12 decreased asymmetric division and proliferation measured by the MTS assay (FIGS. 12D-12F).

[3] = test system: several breast cancer cell lines; settings: ligation of CD47; cited from earlier work

PC200.Hcd47.g3a: gRNA targeting sequence CTACTGAAGTATACGTAAG ngg (SEQ ID NO: 2) in CRISPR vector disrupting the CD47 gene (guide CTACTGAAGTATACGTAAGNGG)
DNA synthesis (BrdU incorporation) [1]: diminished

epidermal growth factor [EGF]
EGFR phosphorylation at Y1068 (EGFR): significantly increased
Ct value of miR let7-family 7a-2 [2]: 26.09 ± 0.50
Ct value of miR let7-family 7a-3 [2]: 28.88 ± 0.71
Ct value of miR let7-family 7f-2 [2]: 33.24 ± 0.05
Ct value of miR let7-family 7d [2]: 27.38 ± 0.18
Ct value 18S RNA ([2]; reference RNA): 17.65 ± 0.35

FIRVVMYEGKK [7N3]
mRNA expression of E-cadherin (E-cadherin): increase

thrombospondin-1 [TSP1]
mitochondrial energetics (MDA-MB-231 and bCSCs): modestly changes; also recorded: less effect
programmed cell death [3]: induce programmed cell death
